Experimental data from patent US20050158817A1, “Method for the production of a fermentation product from an organism” (Technische Universiteit Delft, priority 2003, published 2005).

System: Pseudomonas putida KT2442
Procedure: In accordance with the method of Weusthuis et al. (2001) Biopolymers 3a: Polyesters I: Biological Systems and Biotechnological Production, Wiley-VCH, pp. 291-316, Pseudomonas putida KT2442 was cultured in 8 litres of medium in a 10-litre fed-batch fermentor at 30° C. […] The carbon source in the culture consisted of free fatty acids obtained from coconut oil (Vereenigde Oliefrabrieken, Rotterdam, the Netherlands) in a concentration of 0.4 vol./vol. % per litre of medium, yielding 131 g dry bacteria mass per litre of medium. This carbon source causes the organism to accumulate polyhydroxy alkanoate inclusion bodies. After fermentation, the batter was stored for a maximum of 3 months at 4-8° C.
250 ml of fermentation batter of Pseudomonas putida KT2442 was stirred for 1 hour using a magnetic agitator. […] After adjusting the pH, the mixture was stirred for 30 minutes using a magnetic agitator, whereafter it was homogenised with the aid of a homogeniser (Constant Cell Disruption Systems, Low March, Leerdam, the Netherlands) having a cell volume of 10 ml. The homogeniser was operated at a temperature of 10° C. and the mixture to be homogenised was cooled between homogenisation passages. The number of homogenisation passages was varied from 0 to 5 and the effect of the homogenisation pressure in 1 passage was assessed at 1.0, 1.3, 1.6 or 2.0 kbar. […]

N [ammonium hydroxide]
release of inclusion bodies into the supernatant without homogenisation (pH 11, zero passages (N), cells stored 9 weeks at 4-8° C.): releases a fraction of the inclusion bodies into the supernatant even at zero passages | fraction of free inclusion bodies released from the cells versus homogenisation pressure (pre-treatment at pH 11, 1 passage at 1.0, 1.3, 1.6 or 2.0 kbar, compared with untreated cells, FIG. 1): more inclusion bodies are released from the cells
